Source: US11053204B2, “Pyrimidinyloxy benzene derivatives as herbicides” (FMC Corporation, priority 2015, dated 2021)

Assays:
Assay type in all cases: in vivo
[1] = test system: giant foxtail (Setaria faberii); assay: Test A preemergence, visual injury rating
Summary of the method: (§1)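 Visual injury scored 0–100 (100 = complete control) against untreated controls about 10 days after treatment in a greenhouse. Test chemicals, formulated with surfactant in non-phytotoxic solvent, were sprayed on soil preemergence or on 2-10 cm, one- to two-leaf plants postemergence.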

kochia (Kochia scoparia) [2] = assay: Test A preemergence, visual injury rating
Summary of the method: as §1

[3] = test system: pigweed (Amaranthus retroflexus); assay: Test A preemergence, visual injury rating
Summary of the method: as §1

[4] = test system: barnyardgrass (Echinochloa crus-galli); assay: Test A preemergence, visual injury rating
Summary of the method: as §1

[5] = test system: Italian ryegrass (Lolium multiflorum); assay: Test A preemergence, visual injury rating
Summary of the method: as §1

[6] = test system: ragweed (common ragweed, Ambrosia elatior); assay: Test A preemergence, visual injury rating
Summary of the method: as §1

rice (Oryza sativa) [7] = assay: Test B flooded paddy test, plant response rating; conditions: 250 g ai/ha; Flood; scale of 0 to 100 where 0 is no effect and 100 is complete control; 13 to 15 days
Summary of the method: (§2)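 Visual injury ratings against untreated controls, taken 13 to 15 days after compound was added to paddy water standing 3 cm above the soil.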

[8] = test system: sedge, umbrella (small-flower umbrella sedge, Cyperus difformis); assay: Test B flooded paddy test, plant response rating; conditions: 250 g ai/ha; Flood; scale of 0 to 100 where 0 is no effect and 100 is complete control; 13 to 15 days
Summary of the method: as §2

[9] = test system: barnyardgrass (Echinochloa crus-galli); assay: Test B flooded paddy test, plant response rating; conditions: 250 g ai/ha; Flood; scale of 0 to 100 where 0 is no effect and 100 is complete control; 13 to 15 days
Summary of the method: as §2

[10] = test system: ducksalad (Heteranthera limosa); assay: Test B flooded paddy test, plant response rating; conditions: 250 g ai/ha; Flood; scale of 0 to 100 where 0 is no effect and 100 is complete control; 13 to 15 days
Summary of the method: as §2

[11] = test system: sedge, umbrella (small-flower umbrella sedge Cyperus difformis); assay: Test C flooded paddy test, plant response rating; conditions: flood, scale 0 to 100
Source text: (§3) At the same time, plants selected from these crop and weed species and also chickweed (common chickweed, Stellaria media), buckwheat, wild (wild buckwheat, Polygonum convolvulus), wild mustard (Sinapis arvensis), field poppy (Papaver rhoeas), field violet (Viola arvensis), geranium, cutleaf (cutleaf geranium, Geranium dissectum), Canada thistle (Cirsium arvense), and speedwell (bird's-eye speedwell, Veronica persica), were planted in pots containing Sunshine Redi-Earth® planting medium comprising spaghnum peat moss, vermiculite, starter nutrients and dolomitic limestone and treated with postemergence applications of test chemicals formulated in the same manner. Plants ranged in height from 2 to 18 cm (1- to 4-leaf stage) for postemergence treatments. Treated plants and controls were maintained in a greenhouse for 13 to 15 d, after which time all species were compared to controls and visually evaluated. Plant response ratings, summarized in Table C, are based on a scale of 0 to 100 where 0 is no effect and 100 is complete control. A dash (-) response means no test result.
(§4) Plant species in the flooded paddy test consisted of rice (Oryza sativa), sedge, umbrella (small-flower umbrella sedge Cyperus difformis), ducksalad (Heteranthera limosa), and barnyardgrass (Echinochloa crus-galli) grown to the 2-leaf stage for testing. At time of treatment, test pots were flooded to 3 cm above the soil surface, treated by application of test compounds directly to the paddy water, and then maintained at that water depth for the duration of the test.

rice (Oryza sativa) [12] = assay: Test C flooded paddy test, plant response rating; conditions: flood, scale 0 to 100
Source text: as §3, §4

[13] = test system: barnyardgrass (Echinochloa crus-galli); assay: Test C flooded paddy test, plant response rating; conditions: flood, scale 0 to 100
Source text: as §3, §4

[14] = test system: ducksalad (Heteranthera limosa); assay: Test C flooded paddy test, plant response rating; conditions: flood, scale 0 to 100
Source text: as §3, §4

corn (Zea mays) = assay: Test A postemergence, visual injury rating
Summary of the method: as §1

[15] = test system: galium (catchweed bedstraw, Galium aparine); assay: Test A postemergence, visual injury rating
Summary of the method: as §1

[16] = test system: giant foxtail (Setaria faberii); assay: Test A postemergence, visual injury rating
Summary of the method: as §1

kochia (Kochia scoparia) [17] = assay: Test A postemergence, visual injury rating
Summary of the method: as §1

[18] = test system: wheat (Triticum aestivum); assay: Test A postemergence, visual injury rating
Summary of the method: as §1

[19] = test system: pigweed (Amaranthus retroflexus); assay: Test A postemergence, visual injury rating
Summary of the method: as §1

[20] = test system: barnyardgrass (Echinochloa crus-galli); assay: Test A postemergence, visual injury rating
Summary of the method: as §1

[21] = test system: Italian ryegrass (Lolium multiflorum); assay: Test A postemergence, visual injury rating
Summary of the method: as §1

[22] = test system: ragweed (common ragweed, Ambrosia elatior); assay: Test A postemergence, visual injury rating
Summary of the method: as §1

[23] = test system: blackgrass (Alopecurus myosuroides); assay: Test A postemergence, visual injury rating
Summary of the method: as §1

[24] = 31 g ai/ha, 0 to 100 scale, 0 no effect, 100 complete control
[25] = 125 g ai/ha, 0 to 100 scale (0 no effect, 100 complete control)
[26] = 31 g ai/ha, 0 to 100 scale, 0 is no effect, 100 is complete control, approximately 10 days
[27] = 125 g ai/ha, 0 is no effect, 100 is complete control
[28] = 31 g ai/ha, 0 to 100 scale (0 no effect, 100 complete control)
[29] = 125 g ai/ha, 0 to 100 scale, 0 is no effect, 100 is complete control, approximately 10 days

FC(F)(F)COCc1c(Br)cccc1Oc1ncc(Cl)cn1 [Compound 62]
60: Plant response rating, Pigweed [3, 24] | Sedge, Umbrella plant response rating ([11]; 62 g ai/ha) | Kochia plant response rating (kochia (Kochia scoparia) [17]; [26])
75: Ducksalad plant response rating ([14]; 125 g ai/ha)
100: Foxtail, Giant plant response rating [1, 25] | Plant response rating, Ducksalad [10] | Kochia plant response rating (0 to 100 scale) (kochia (Kochia scoparia) [17]; [27])
30: Plant response rating, Foxtail, Giant [1, 24] | Plant response rating, Barnyardgrass [4, 24] | Corn plant response rating (0 to 100 scale) (corn (Zea mays); [27]) | Galium plant response rating [15, 26]
90: Pigweed plant response rating [3, 25] | Plant response rating, Sedge, Umbrella [8] | Pigweed plant response rating (0 to 100 scale) [19, 27]
50: Pigweed plant response rating [19, 26]
20: Plant response rating, Kochia (kochia (Kochia scoparia) [2]; [24]) | Barnyardgrass plant response rating ([13]; 125 g ai/ha) | Barnyardgrass plant response rating [20, 26]
40: Plant response rating, Barnyardgrass [9] | Ducksalad plant response rating ([14]; 62 g ai/ha) | Foxtail, Giant plant response rating (0 to 100 scale) [16, 27] | Barnyardgrass plant response rating (0 to 100 scale) [20, 27] | Blackgrass plant response rating (0 to 100 scale) [23, 27]
80: Galium plant response rating (0 to 100 scale) [15, 27]
0: Plant response rating, Ryegrass, Italian [5, 24] | Plant response rating, Ragweed [6, 24] | Ragweed plant response rating [6, 25] | Plant response rating, Rice (rice (Oryza sativa) [7]) | Sedge, Umbrella plant response rating ([11]; 16 g ai/ha) | Sedge, Umbrella plant response rating ([11]; 31 g ai/ha) | Rice plant response rating (rice (Oryza sativa) [12]; 16 g ai/ha) | Rice plant response rating (rice (Oryza sativa) [12]; 31 g ai/ha) | Rice plant response rating (rice (Oryza sativa) [12]; 62 g ai/ha) | Barnyardgrass plant response rating ([13]; 16 g ai/ha) | Barnyardgrass plant response rating ([13]; 31 g ai/ha) | Barnyardgrass plant response rating ([13]; 62 g ai/ha) | Ducksalad plant response rating ([14]; 16 g ai/ha) | Ducksalad plant response rating ([14]; 31 g ai/ha) | Corn plant response rating (corn (Zea mays); [26]) | Foxtail, Giant plant response rating [16, 26] | Wheat plant response rating [18, 26] | Wheat plant response rating (0 to 100 scale) [18, 27] | Ryegrass, Italian plant response rating [21, 26] | Ryegrass, Italian plant response rating (0 to 100 scale) [21, 27] | Ragweed plant response rating [22, 26] | Ragweed plant response rating (0 to 100 scale) [22, 27] | Blackgrass plant response rating [23, 26]
70: Kochia plant response rating (kochia (Kochia scoparia) [2]; [25]) | Barnyardgrass plant response rating [4, 25]
65: Sedge, Umbrella plant response rating ([11]; 125 g ai/ha)
10: Ryegrass, Italian plant response rating [5, 25] | Rice plant response rating (rice (Oryza sativa) [12]; 125 g ai/ha)

N#CC(CCCCC(F)(F)F)c1ccccc1Oc1ncc(Cl)cn1 (stereo not shown) [Compound 145]
20: Ragweed plant response rating [22, 29]
100: Plant response rating, Foxtail, Giant [1, 25] | Plant response rating, Pigweed [3, 24] | Plant response rating, Pigweed [3, 25] | Plant response rating, Sedge, Umbrella [8] | Plant response rating, Ducksalad [10] | Pigweed plant response rating [19, 29]
30: Plant response rating, Ragweed [6, 25] | Plant response rating, Rice (rice (Oryza sativa) [7]) | Corn plant response rating (corn (Zea mays); [28]) | Wheat plant response rating [18, 29] | Barnyardgrass plant response rating [20, 28]
0: Plant response rating, Kochia (kochia (Kochia scoparia) [2]; [24]) | Plant response rating, Ragweed [6, 24]
90: Plant response rating, Foxtail, Giant [1, 24] | Kochia plant response rating (kochia (Kochia scoparia) [17]; [29]) | Pigweed plant response rating [19, 28]
80: Plant response rating, Barnyardgrass [4, 25] | Galium plant response rating [15, 29] | Barnyardgrass plant response rating [20, 29]
40: Plant response rating, Kochia (kochia (Kochia scoparia) [2]; [25]) | Plant response rating, Barnyardgrass [4, 24] | Galium plant response rating [15, 28] | Ryegrass, Italian plant response rating [21, 29] | Blackgrass plant response rating [23, 28]
50: Plant response rating, Ryegrass, Italian [5, 25] | Plant response rating, Barnyardgrass [9] | Corn plant response rating (corn (Zea mays); [29]) | Foxtail, Giant plant response rating [16, 28]
60: Blackgrass plant response rating [23, 29]
70: Foxtail, Giant plant response rating [16, 29] | Kochia plant response rating (kochia (Kochia scoparia) [17]; [28])
10: Plant response rating, Ryegrass, Italian [5, 24] | Wheat plant response rating [18, 28] | Ryegrass, Italian plant response rating [21, 28] | Ragweed plant response rating [22, 28]

N#Cc1cccc(Oc2ncc(Cl)cn2)c1NCCCC(F)(F)F [Compound 146]
40: Plant response rating, Barnyardgrass [9]
85: Plant response rating, Sedge, Umbrella [8]
100: Plant response rating, Foxtail, Giant [1, 25] | Plant response rating, Pigweed [3, 25] | Plant response rating, Barnyardgrass [4, 25] | Plant response rating, Ducksalad [10] | Galium plant response rating [15, 29] | Kochia plant response rating (kochia (Kochia scoparia) [17]; [29])
60: Plant response rating, Kochia (kochia (Kochia scoparia) [2]; [24]) | Plant response rating, Pigweed [3, 24] | Pigweed plant response rating [19, 28]
30: Foxtail, Giant plant response rating [16, 28] | Barnyardgrass plant response rating [20, 28] | Ragweed plant response rating [22, 29] | Blackgrass plant response rating [23, 28]
70: Galium plant response rating [15, 28] | Kochia plant response rating (kochia (Kochia scoparia) [17]; [28]) | Pigweed plant response rating [19, 29] | Ryegrass, Italian plant response rating [21, 29]
35: Plant response rating, Rice (rice (Oryza sativa) [7])
0: Plant response rating, Ryegrass, Italian [5, 24] | Plant response rating, Ragweed [6, 24] | Plant response rating, Ragweed [6, 25] | Ryegrass, Italian plant response rating [21, 28] | Ragweed plant response rating [22, 28]
20: Plant response rating, Barnyardgrass [4, 24] | Corn plant response rating (corn (Zea mays); [28]) | Wheat plant response rating [18, 28] | Wheat plant response rating [18, 29]
50: Plant response rating, Ryegrass, Italian [5, 25]
90: Foxtail, Giant plant response rating [16, 29] | Barnyardgrass plant response rating [20, 29] | Blackgrass plant response rating [23, 29]
80: Plant response rating, Foxtail, Giant [1, 24] | Plant response rating, Kochia (kochia (Kochia scoparia) [2]; [25]) | Corn plant response rating (corn (Zea mays); [29])
